Row | Structure (SMILES) | melting point [°C]
1 | Cc1cncc(C)c1-c1c(C)cc(I)cc1C | 242 to 243
2 | Cc1ccc(-c2noc3c(Cl)c(OCC(=O)O)ccc23)cc1 | 257 to 260
3 | C=CCCN(CCC=C)Cc1noc(-c2ncn3c2[C@@H]2CCN2C(=O)c2ccccc2-3)n1 | 80 to 87
4 | C1=NCCN1c1ccccc1 | 45
5 | Cc1n[nH]c(=O)cc1-c1ccc(OC2CCN(C(=O)OC(C)(C)C)CC2)cc1 | 184 to 186
6 | CCOC(=O)/C=C/c1ccc(NC(=O)c2csc(NC(=O)NCc3ccccc3)n2)cc1 | 207
7 | Cn1ncc2ccc(OCCCCl)cc2c1=O | 252 to 253
8 | CCc1cc(Oc2ccc(S(C)(=O)=O)nc2)cc2cc(C3=NCC(CC(N)=O)S3)[nH]c12 (stereo not given) | 190 to 191
9 | O=C(Nc1ccccn1)c1nc(-c2ccccc2)c2ccccc2c1O | 228 to 230
10 | CC(C)C[C@H](O)[C@H](O)[C@@H](N)CC1CCCCC1 | 110 to 111
11 | CC1(C)OC(=O)c2c(cccc2-c2ccccn2)O1 | 142
12 | CCc1cnn(CC(=O)O)c1OCCCc1cn(-c2ccc(C(F)(F)F)cn2)nc1C(CC)CC | 124 to 125
13 | CCc1cc2c(c3c1[nH]c1ccc(O)cc13)C(=O)N(CCN(CC)CC)C2=O | 188 to 189
14 | CCN(CC)CC(O)CNC(=O)c1c(OC)c2ccccc2n1-c1ccccc1 (stereo not given) | 148 to 150
15 | CC(C)(C)OC(=O)N1CCC(OCc2ccccc2)C1CC(=O)Cn1cnc2cccc(C(F)(F)F)c2c1=O (stereo not given) | 218
16 | Nc1ccccc1SC(F)(F)F | 30 to 31
17 | CSC[C@H](C)NC(=O)c1c(I)cccc1C(=O)O | 132 to 134
18 | O=C(O)Cc1ccc(NC(=O)C(COc2ccccc2Cl)NS(=O)(=O)c2ccc(Cl)cc2)cc1 (racemic) | 190 to 191
19 | COc1ccc(N2CCN(c3ccc(F)cc3)CC2)c(-c2ccc(N(C)C)cc2)n1 | 168 to 169
20 | COc1cc(CCCCCCCCCCCO)ccc1O | 72 to 74

Row | Structure (SMILES) | melting point [°C]
21 | Cc1cc(OCCN)ccc1NC(=O)c1ccc(N2CCNCC2)cc1 | > 250
22 | N#Cc1ccc2oc(-c3ccc(O)cc3)cc(=O)c2c1 | 296 to 298
23 | CCCCc1c(/C=C/c2ccccc2OCC)nc2ccc(C(=O)O)cn2c1=O | 265 to 268
24 | O=S1(=O)NCNc2c(-c3ccccc3)cc(-c3ccccc3)cc21 | 222 to 225
25 | O=C(Nc1ccc(SC(F)(F)F)c(Cl)c1)c1cc(Cl)c2ccccc2c1O | 148 to 149
26 | O=C1Nc2cc(Cl)ccc2C(=O)C1c1coc2ccccc12 (stereo not given) | 290
27 | N#CC1=C(c2ccccc2)CN(c2ccccc2)C1=O | 188 to 190
28 | Clc1ccc(CC(Cn2cncn2)Cn2cncn2)cc1 | 107 to 108
29 | Cc1ccn(-c2ccc(C(=O)N3Cc4cccn4Cc4ccccc43)c(Cl)n2)n1 | 171 to 172
30 | COCCCNc1ccc(S(N)(=O)=O)cn1 | 129 to 132
31 | Cc1cccc(C)c1NC(=O)NCCCNC(C)C | 152 to 154
32 | N#Cc1cnn(-c2c(Cl)cc(Cl)cc2Cl)c1C=O | 152
33 | CC(=CC(=O)NC(C)(C)C)OC(=O)c1cc(S(C)(=O)=O)c(Cl)cc1NCc1ccco1 | 140 to 145
34 | CC(C)(C)CC(C)(C)Nc1nc(N2CC3CCC(CC3)C2)nc(C(C)(C)C)n1 | 164 to 168
35 | COC(=O)c1ccc2c(c1C(=O)OC)OCO2 | 57 to 59
36 | Nc1nnc(-c2ccc3occ(-c4ccccc4Cl)c3c2)o1 | 220 to 221
37 | COc1ccc(C2(C#N)CCC(=O)CC2)c2c1oc1ccccc12 | 199 to 202
38 | COc1ccc(N2CCN(c3c(C)c(C)c4c(c3C)C(C)(O)C(C)(C)O4)CC2)cc1 (stereo not given) | 139 to 141
39 | Cc1cc(-c2ccc(C(F)(F)F)cc2)nc(-n2cnc(-c3ccc(S(N)(=O)=O)cc3)c2)n1 | 323
40 | CCc1ccc2cc(OC)cc(NC(C)CCCN)c2n1 (stereo not given) | 111 to 114

— a melting point compilation (Tetko et al.; mined from patent text by program, amines drawn as free bases though some values may be those of a salt)
